Test [1] has as its system ERK signalling (phosphorylated ERK1 and 2/total ERK). In words: ERK signalling in HT29 cell line (Western blot). In kind it is cell-based. The conditions noted are these: HT29 (V600E oncogenic mutation). The method, then: Following 24 h treatment with the appropriate drugs either in presence of 10% bacterial supernatant or absence (YCFA+), protein extracts were obtained by lysing cells in RIPA buffer (R0278; Sigma Aldrich) supplemented with protease inhibitors (cOmplete Protease Inhibitor Cocktail Tablets; Roche, Switzerland) and 1 mM/L sodium orthovanadate, 0.5 mM/L PMSF. Protein quantification was done by the BCA protein assay. Equal amounts of total protein (20 μg/lane) were then separated by SDS-PAGE on 4-15% gradient gel (BioRad) and transferred to polyvinylidene difluoride (PVDF) membranes (Thermo Fisher Scientific, Loughborough). […]
Proteins of interest were detected with the appropriate HRP-conjugated secondary antibody (1:10,000, Thermo Fisher Scientific, Loughborough), developed with the ECL Western blotting Super Signal PicoPlus substrate (34577; Thermo Fisher Scientific, Loughborough), and visualised in Chemidoc XRS Imager (BioRad).
The effects of the following treatments were assessed on the HT29 colorectal cancer cell line (V600E oncogenic mutation in BRAF): (1) MRx0029; (2) Vemurafenib (VEMU) in YFCA+ medium; (3) VEMU and MRx0029; (4) Azacytidine-C (Aza-c) in YCFA+ medium; (5) Aza-c and MRx0029; (6) VEMU, Aza-c and MRx0029.

The next test relates to IL-8. Briefly: IL-8 secretion in MG U373 cells (ELISA). The class given is cell-based, human. The conditions noted are these: 10% bacteria supernatant 24 h, independently of the presence of LPS (1 ug/mL). How it is done: MG U373 is a human glioblastoma astrocytoma derived from a malignant tumour and were purchased from Sigma-Aldrich (cat n. 08061901-1VL). MG U373 human glioblastoma astrocytoma cells were grown in MEM (Sigma Aldrich, cat n. M-2279) supplemented with 10% FBS, 1% Pen Strep, 4 mM L-Glut, 1×MEM Non-essential Amino Acid solution and 1× Sodium Piruvate.
Once grown the MG U373 cells were plated on 24-well plate at 100,000 cells/well. The cells were treated with LPS (1 ug/mL) alone or with 10% of bacteria supernatant from MRx0029 for 24 h. LPS is a known stimulator of proinflammatory cytokines such as IL-8. Afterwards the cell free supernatants were collected, centrifuged at 10,000 g for 3 min at 4° C. IL-8 was measured using Human IL-8 ELISA Kit from Peprotech (cat n. #900-K18) according to manufacturer instruction.
A general note: ELISA stands for enzyme-linked immunosorbent assay.

The test system of a further test is MAP2. Briefly: MAP2 gene expression in 451Lu cell line (qPCR). The conditions noted are these: relative to the cell line only negative control. In kind it is cell-based. The method, then: Cells were plated in 12-well plates at density of 2×10^5 cells/well. After 24 h cells were treated with either DMSO or Vemurafenib (662005; EMD Millipore; VEMU; SKMEL28, SKMEL31, 451Lu, HT29 (1 μM) SKMEL2 (10 μM) or Azacytidine-C (A3656; Sigma Aldrich; AzaC; 5 μg/ml) or both drugs (VEMU+Aza) together, in presence of 10% bacteria supernatants or absence of it (YCFA+). Total RNA was extracted using the RNeasy mini kit (Qiagen, Manchester, UK) according to the manufacturer's instructions, and the RNA concentration was determined by spectrophotometer at 260/280 nm (NanoDrop ND-1000; Thermo Fisher Scientific, Loughborough). For mRNA expression analysis, cDNA was prepared from 2000 ng of total RNA using the High-Capacity cDNA reverse transcription kit (Thermo Fisher, Loughborough) according to the manufacturer's instructions. The reverse transcription reactions were performed in a thermocycler (Biometra, Germany) at 25° C. for 10 min, 37° C. for 120 min, and 85° C. for 5 min Resulting cDNA was amplified in duplicates by the SYBR-Green PCR assay, and products were detected on QuantStudio 6 flex real-time PCR machine (Applied Biosystems, UK) using a standardised profile (initial denaturation of 95° C. for 10 minutes, followed by 40 cycles of 10 seconds of denaturation at 95° C. and 30 seconds of annealing/extension at 65° C.). […]
A general note: Real-time PCR tracks product formation cycle by cycle.

Test [2] relates to Occludin, Villin, TJP1 and TJP2. Briefly: Tight junction protein gene expression in HT29-mtx cells (qRT-PCR). The conditions noted are these: 2 h incubation. The class given is cell-based. From the text: The ability of MRx0029 to cause any intestinal barrier dysfunction was investigated. HT29-mtx epithelial, mucin-producing cell monolayers were used as an in vitro model to evaluate gut barrier disruption and immune stimulation following treatment with MRx0029.
Total RNA was extracted using the RNeasy mini kit (Qiagen, Manchester, JUK) according to the manufacturer's instructions, and the RNA concentration determined by absorbance at 260/280 nm using a spectrophotometer (nano-Drop ND-1000; Thermo Scientific, Wilmington, Del.). For mRNA expression analysis, cDNA was prepared from total RNA using the High-Capacity cDNA reverse transcription kit (Applied Biosystems, UK) according to the manufacturer's instructions. The reverse transcription reactions were performed in a Thermo cycler (Biometra, Germany) at 25° C. for 10 min, 37° C. for 120 min, and 85° C. for 5 min, hold on at 4° C. Resulting cDNA was amplified in duplicates by the SYBR-Green PCR assay, and products were detected on QuantStudio 6 flex real-time PCR machine (Applied Biosystems, UK) using a standardised profile (initial denaturation of 95° C. for 10 minutes, followed by 40 cycles of 15 seconds of denaturation at 95° C. and 60 seconds of annealing/extension at 60/65° C., depending on the primers. A dissociation stage was added after the 40 cycles to generate a melting curve. Analysis was performed using the Applied Biosystems QuantStudio Real-Time PCR Software v1.2.
RNA was isolated and Quantitative RT-PCR (qRT-PCR) analysis was performed to characterize the changes in gene expression of tight junction proteins during incubation with MRx0029. The administration of MRx0029 enhanced Occludin, Villin, Tight Junction Protein 1 and 2 (respectively TJP1 and TJP2) mRNA expression after 2 h incubation (FIG. 14B).

Regarding Megasphaera massiliensis MRx0029, in test [1], the ERK signalling entry is listed as “inhibiting ERK signalling”. Further, the IL-8 secretion entry in the test with IL-8 is “Increases IL-8 Secretion”. Moreover, the MAP2 gene expression entry with MAP2 is reported as “increased MAP2 gene expression”. Besides, in test [2], the “Occludin mRNA expression” value is “enhanced”, the “TJP1 mRNA expression” value is “enhanced”, the “TJP2 mRNA expression” value was “enhanced” and the “Villin mRNA expression” value is listed as “enhanced”.

The values above are taken from US11419902B2, “Compositions comprising bacterial strains” (4D Pharma Research Limited, priority 2018, dated 2022).
